Earlier results, collected in PMC12281572.
Where “and” joins values, the source holds several entries; their conditions need not be identical. Equal values may be shown once.

Experiment: FTIR, 4-fluorophenol as donor (the pK_BHX database, per the paper)
Conditions: CCl4; 25 C

SMILES | pK_BHX (log10 Kf of the 1:1 H-bond complex with 4-fluorophenol, by FTIR)
Cc1cc(C(C)(C)C)nc(C(C)(C)C)c1 | -0.45 log units
N#Cc1ccc(Br)cc1 | 0.73 log units
CC(C)(C)c1cccc(C(C)(C)C)n1 | -0.54 log units
CN(C)Cc1ccccc1 | 1.59 log units
Cc1ccc(N=C(c2ccccc2)N(C)c2ccccc2)cc1 | 1.52 log units
CN(C(=Nc1ccc(Br)cc1)c1ccccc1)c1ccccc1 | 1.11 log units
CC(=Nc1ccccc1)N(C)c1ccc(Br)cc1 | 1.38 log units
CN(C)C=NCC(F)(F)F | 1.6 log units
Clc1ccc(N=C(Nc2ccccc2)c2ccccc2)cc1 | 1.13 log units
CNCc1ccccc1 | 1.82 log units
CC(=Nc1ccc(C)cc1)Nc1ccc(C)cc1 | 2.01 log units
CN(C)c1ccccn1 | 1.61 log units
Fc1ccc(N=C(Nc2ccccc2)c2ccccc2)cc1 | 1.25 log units
CC(=O)N(c1ccccc1)c1ccccc1 | 1.94 log units
CN(C)C=NCC(C)(C)C | 2.26 log units
CN1CN(C)CN(C)C1 | 1.58 log units
Cn1ccccc1=O | 2.5 log units
CNC1CCCCC1 | 2.24 log units
CC12CCC(CC1)C(C)(C)O2 | 1.38 log units
CN(C)C(=O)c1ccc(N(C)C)cc1 | 2.49 log units
CC1CCCO1 (centres unmarked) | 1.34 log units
CC(=O)c1ccc(N=CN(C)C)cc1 | 1.7 log units and 1.52 log units
NCC(F)(F)F | 0.71 log units

SMILES | pK_BHX (log10 Kf of the 1:1 H-bond complex with 4-fluorophenol, by FTIR)
N#Cc1ccc(C(F)(F)F)cc1 | 0.54 log units
C=CCN(CC=C)CC=C | 1.34 log units
CN(C)C=O | 2.1 log units
CCOC(=O)c1ccc(C(=O)OCC)cc1 | 0.76 log units
c1ccnnc1 | 1.65 log units
Cc1ccccc1C | -0.27 log units
c1ccc(C2=NCCC2)cc1 | 1.98 log units
CC(=O)N(C)c1ccccc1 | 2.19 log units
CC(C)=C(C)C | -0.85 log units
CC(=O)N(C(C)C)C(C)C | 2.47 log units
CC(=O)c1ccc2ccccc2c1 | 1.13 log units
c1ccc2c(c1)ccc1ccccc12 | -0.53 log units
N#Cc1ccccc1F | 0.64 log units
CC(C)N(C(=O)C(C)(C)C)C(C)C | 2.03 log units
Cc1cccc(C)n1 | 2.14 log units
CCCCO | 1.02 log units
CCCN(C)C | 1.98 log units
C1CN2CCN1CC2 | 2.33 log units
CN1CCN(C)CC1 | 1.88 log units
O=C1CCCCCC1 | 1.41 log units
CCCCSCCCC | 0.23 log units
CCCC[N+](CCCC)(CCCC)[N-]C#N | 3.24 log units
c1ccc2scnc2c1 | 1.29 log units

SMILES | pK_BHX (log10 Kf of the 1:1 H-bond complex with 4-fluorophenol, by FTIR)
CN1CCC(Cl)CC1 | 1.7 log units
CN=C(N(C)C)N(C)C | 3.16 log units
CC(=Nc1ccc(Br)cc1)N(C)c1ccc(C)cc1 | 1.43 log units
COCCOC | 1.02 log units
[O-][n+]1cc(Cl)cc(Cl)c1 | 1.56 log units
N#CC1CCCCC1 | 0.97 log units
CN(C)C(=O)CCl | 1.74 log units
CCOC(=O)N(CC)CC | 1.95 log units
CC(=NC#N)N(C)C | 2.24 log units
Cc1cccnc1 | 2.0 log units
COc1ccc(C(=O)c2ccc(OC)cc2)cc1 | 1.49 log units
CC1=CCCCC1 | -0.74 log units
CCN(C)Cc1cccc(F)c1 | 1.14 log units
c1ccc2cnncc2c1 | 1.97 log units
CN(N)c1ccncc1 | 2.58 log units
c1cncnc1 | 1.07 log units
Cc1ccncc1C | 2.24 log units
CCN(CC)C(=O)C(F)(F)F | 1.06 log units
CC(=O)N(C1CCCCC1)C1CCCCC1 | 2.41 log units
Nc1ccccn1 | 2.12 log units
CC(C)N | 2.2 log units
Cc1cccc(C)c1C#N | 0.86 log units
COc1ccc(OC)cc1 | 0.12 log units

SMILES | pK_BHX (log10 Kf of the 1:1 H-bond complex with 4-fluorophenol, by FTIR)
CC(C)N(C=O)C(C)C | 2.24 log units
CN(C)C(=O)N(c1ccccc1)c1ccccc1 | 2.08 log units
CC(C)(C)c1ccncc1 | 2.11 log units
O=C(N(c1ccccc1)c1ccccc1)N(c1ccccc1)c1ccccc1 | 1.74 log units
FC12CC3CC(C1)CC(F)(C3)C2 | 0.0 log units
C(=Nc1ccccc1)c1ccccc1 | 0.87 log units
CCCCCCCCCCCCCCCCN | 2.26 log units
CN1CCCCC1=O | 2.6 log units
CNC(C)(C)C | 2.21 log units
N#Cc1cccc(Br)c1 | 0.65 log units
O=CN(c1ccccc1)c1ccccc1 | 1.41 log units
CN(C)c1cccc2cccc(N(C)C)c12 | -0.24 log units
CC(=O)c1cccc(Cl)c1 | 0.82 log units
CCN(CC)C(=O)c1ccc(OC)cc1 | 2.35 log units
C#CCCC#C | -0.43 log units
CCC(C)=O | 1.22 log units
CNCCNC | 2.29 log units
CC(C)c1cccc(C(C)C)c1N | 0.37 log units
CN=C(c1ccc(C)cc1)N(C)C | 2.72 log units
CCOC(=O)C=CN(C)C | 2.09 log units
IC12CC3CC(CC(C3)C1)C2 | -0.19 log units
COc1ccc(C(=S)N(C)C)cc1 | 1.16 log units
CC(=O)c1ccc(C23CC4CC(CC(C4)C2)C3)cc1 | 1.3 log units

SMILES | pK_BHX (log10 Kf of the 1:1 H-bond complex with 4-fluorophenol, by FTIR)
CSC1CCCCC1 | 0.24 log units
C1=CCCCC1 | -0.82 log units
CN(C)C=Nc1ccc(C(F)(F)F)cc1 | 1.43 log units
CSCc1ccccc1 | -0.02 log units
Cc1ccc(C(=O)N(C)C)cc1 | 2.27 log units
CN(C)C=NCc1cccc(C(F)(F)F)c1 | 1.99 log units
CN(C)c1ccc(C=O)cc1 | 1.53 log units
CC(C)(C)C(=O)C12CC3CC(CC(C3)C1)C2 | 1.08 log units
CC(=Nc1ccc(Br)cc1)N(C)c1ccccc1 | 1.36 log units
O=P(c1ccccc1)(c1ccccc1)c1ccccc1 | 3.16 log units
CC(=O)c1cccnc1 | 1.39 log units and 0.9 log units
CCOS(=O)OCC | 1.07 log units
C1CSCSC1 | -0.06 log units
CC(C)N(C)C | 2.11 log units
CCCCN(C=O)CCCC | 2.17 log units
CN(C)c1ccc(C(=O)c2ccccc2)cc1 | 1.67 log units
COC(OC)(OC)OC | 0.26 log units
ClC1CCCCC1 | -0.27 log units
N#CN1CCOCC1 | 1.34 log units
S=C1SCCS1 | 0.3 log units
CN(C)c1ccncc1 | 2.8 log units
